Measurements taken from US20210186930A1, “Methods of Treating Renal Disease Associated With Chronic Kidney Disease Such as Alport Syndrome” (UNIVERSITY OF MIAMI, priority 2018, published 2021).
Entries after “also recorded” stand apart in the source; their conditions may differ.

Legend:
Col4a3 knockout mice = assay: Fibrosis, lipid droplets, serum and kidney cortex lipids, CD36 in Col4a3 knockout mice treated with ezetimibe (FIG. 4); type: in vivo, mouse
Method: Determination of cholesterol content in kidney cortex: Tissue from kidney cortexes was homogenized in hypotonic buffer (10 mM HEPES pH7.0, 15 mM KCl, 1 mM MgCl2, 10 mM phosphatase inhibitors). Lipids from 100 μl of the homogenate were extracted with 1 ml of hexane:isopropanol (3:2, v/v), dried and reconstituted in 100 μl of isopropanol-NP40 (9:1, v/v). Tissue fractions not soluble in the organic solvent, were further dried, reconstituted in 8 M urea, and assayed for protein concentration using Pierce BCA protein assay kit (ThermoFisher Scientific, MA, USA). Total cholesterol from lipid extracts was determined by the enzymatic method as previously described (Robinet, P., Wang, Z., Hazen, S. L. & Smith, J. D. A simple and sensitive enzymatic method for cholesterol quantification in macrophages and foam cells. Journal of lipid research 51, 3364-3369, 2010). Briefly, endogenous peroxides present were eliminated by incubating samples and standards with catalase (Sigma-Aldrich, MO, USA), 45 U/ml final concentration, for 15 min at 37° C. Then, 50 μl of samples and standards were mixed with 50 μl of reagent A (2 U/ml cholesterol oxidase (Sigma-Aldrich, MO, USA), 0.6 U/ml cholesterol esterase (MP Biomedicals), 2 U/ml HRP (Sigma), 100 μM Amplex Red (ThermoFisher Scientific, MA, USA) in black 96-well plates. The plates were incubated at 37° C. for 30 min and fluorescence was read at 530 nm (Ex) and 580 nm (Em) in a plate reader (SpectraMax M5, Molecular Devices, CA, USA). Cholesteryl esters (CE) quantification was based on the method described from Toshimi M, et al. Briefly, 25 μl of samples was mixed with 150 μl of free cholesterol decomposition reagent (45 U/ml catalase, 1 U/ml cholesterol oxidase) and incubated 2-4 h at 37° C., and then the final volume was brought up to 250 μl prior to determining free and total cholesterol remaining. Total cholesterol remaining was determined by mixing 50 μl of end product reaction with 50 μl of reagent A, as described above. Free cholesterol remaining was determined similarly, but without including cholesterol esterase in the reagent. CE was calculated by the formula CE=(TC−FC)×DF, where TC is the total cholesterol remaining, FC the free cholesterol remaining and DF the dilution factor, in this case, 10.
Lipid content: Oil Red 0 staining was performed on frozen tissue sections and triglyceride content was determined on snap frozen kidney tissue as described above.
Mouse models: Mice in which exon 5 of a3 chain of collagen type IV is deleted (Col4a3 KO) were obtained from the Jackson Laboratory (#002908, 129-Col4a3tm1Dec/J). Col4a3 heterozygous littermates were bred to generate Col4a3 KO mice. Four groups of mice with n=3-10 per group were studied. The four groups consisted of: 1) wildtype controls+vehicle, 2) wildtype controls+ezetimibe, 3) Col4a3 KO+vehicle, 4) Col4a3 KO+ezetimibe. ezetimibe was administered by oral gavage daily starting at 4 weeks of age at a concentration of 5 mg/kg body weight. […] Mice were sacrificed at 8 weeks of age when progression to end-stage renal failure had occurred.
Serology: Immediately prior to sacrifice, a blood sample was collected for the determination of BUN and lipid panel analysis in the comparative laboratory core facility of the University of Miami. Serum creatinine was determined by tandem mass spectrometry (UAB-UCSD O'Brien Core Center, University of Alabama).
Picrosirius red staining: Paraffin-embedded sections (4 μm thick) were deparaffinized with xylene and a graded alcohol series. Sections were rinsed for 5 min in distilled water, stained for 1 hour with picrosirius red in saturated aqueous picric acid, examined under a light microscope and photomicrographs were taken. Histological images were visualized using a light microscope (Olympus BX 41, Tokyo, Japan) at 40× magnification and analyzed using Image J software.

Col4a3−/− mice = assay: Renal function in Col4a3-/- mice treated with ezetimibe, ramipril or both (Example 1, FIG. 5); type: in vivo, mouse; conditions: vs untreated Col4a3−/−
Text: Albumin/creatinine ratio: All albuminuria values are expressed as μg albumin/mg creatinine. Albumin/creatinine determined by ELISA (Bethyl Laboratories) for albumin detection and a biochemical assay based on the Jaffe method for creatinine detection (Stanbio) as previously described. Serology: Immediately prior to sacrifice, a blood sample was collected for the determination of BUN and lipid panel analysis in the comparative laboratory core facility of the University of Miami. Serum creatinine was determined by tandem mass spectrometry (UAB-UCSD O'Brien Core Center, University of Alabama). The following experiment was performed to investigate which treatment, ezetimibe (EZ), ramipril (Ramp) or the combination of both drugs (EZ+Ramp), would best preserve renal function in Col4a3 knockout mice, all drugs were administered to 4-week-old Col4a3−/− mice for 4 weeks as follows: ezetimibe (Ez) was orally administered at a concentration of 5 mg/kg BW, ramipril was added to the drinking water at a concentration that would lead to a daily ramipril uptake of 10 mg/kg BW. All mice were sacrificed at 8 weeks of age. The following four groups of mice were analyzed: Col4a3^+/+, Col4a3^−/−+Ez, Col4a3^−/−+Ramp and Col4a3^−/−+Ez+Ramp.

[1] = cited from earlier work
[2] = Col4a3 knockout mice, ezetimibe treated vs untreated
[3] = Col4a3−/− mice treated 4 weeks, ezetimibe 5 mg/kg, ramipril 10 mg/kg

O=C1[C@H](CC[C@H](O)c2ccc(F)cc2)[C@@H](c2ccc(O)cc2)N1c1ccc(F)cc1 [ezetimibe]
total cholesterol levels in kidney cortexes (Col4a3 knockout mice; Col4a3 knockout mice, ezetimibe treated or untreated): No change in total cholesterol levels | fibrosis (PicroSirius Red staining) (Col4a3 knockout mice; [2]): significant reduction of fibrosis | glomerular lipid droplets (Oil Red O staining) (Col4a3 knockout mice; [2]): significant reduction of glomerular lipid droplets | serum triglyceride levels (Col4a3 knockout mice; [2]): significantly decreased | total serum cholesterol levels (Col4a3 knockout mice; [2]): significantly decreased | triglyceride content in kidney cortexes (Col4a3 knockout mice; [2]): significantly reduces triglyceride content | CD36 expression (Col4a3 knockout mice; ezetimibe treated Col4a3 knockout mice (untreated knockout also increased)): significantly increased | ratio of esterified to total cholesterol in kidney cortexes (Col4a3 knockout mice; ezetimibe treated Col4a3 knockout mice compared to controls (untreated knockout also increased)): significantly increased | albumin/creatinine ratio (ACR) (Col4a3−/− mice; 4-week-old Col4a3−/− mice treated 4 weeks, ezetimibe 5 mg/kg BW oral, ramipril 10 mg/kg BW in drinking water): significant reduction in the albumin/creatinine ratio; also recorded: significant decrease in the albumin/creatinine ratio | serum BUN levels (Col4a3−/− mice; [3]): significant reduction in the serum BUN levels | serum creatinine levels (Col4a3−/− mice; [3]): significant reduction in the serum creatinine levels | solubility in ethanol, methanol, and acetone [1]: freely to very soluble | solubility in water [1]: practically insoluble
